# Laboratory results taken from ChEMBL document CHEMBL1151049, “Bis-quinolinium cyclophanes: A novel class of potent blockers of the apamin-sensitive Ca2+-activated K+ channel” (Bioorg Med Chem Lett, 1997).
# pIC50: −log10 of the molar value.
# Experiments:
# Rattus norvegicus = organism: Rattus norvegicus; assay: Equieffective molar ratio (EMR) is ratio of concentrations of compound and dequalinium causing 50% inhibition of the After hyperpolarisation (AHP) in rat sympathetic neurons; assay type: functional, Sympathetic neuron
# [1] = molecular target: Small conductance calcium-activated potassium channel protein 2 (Rattus norvegicus, UniProt P70604); assay: Inhibitory concentration of compound required for SKCa blocking action was assessed from its ability to inhibit After hyperpolarisation (AHP) in cultured rat sympathetic neurons; assay type: functional, cell-based, Sympathetic neuron
# Chain of Small conductance calcium-activated potassium channel protein 2 (P70604 whole entry): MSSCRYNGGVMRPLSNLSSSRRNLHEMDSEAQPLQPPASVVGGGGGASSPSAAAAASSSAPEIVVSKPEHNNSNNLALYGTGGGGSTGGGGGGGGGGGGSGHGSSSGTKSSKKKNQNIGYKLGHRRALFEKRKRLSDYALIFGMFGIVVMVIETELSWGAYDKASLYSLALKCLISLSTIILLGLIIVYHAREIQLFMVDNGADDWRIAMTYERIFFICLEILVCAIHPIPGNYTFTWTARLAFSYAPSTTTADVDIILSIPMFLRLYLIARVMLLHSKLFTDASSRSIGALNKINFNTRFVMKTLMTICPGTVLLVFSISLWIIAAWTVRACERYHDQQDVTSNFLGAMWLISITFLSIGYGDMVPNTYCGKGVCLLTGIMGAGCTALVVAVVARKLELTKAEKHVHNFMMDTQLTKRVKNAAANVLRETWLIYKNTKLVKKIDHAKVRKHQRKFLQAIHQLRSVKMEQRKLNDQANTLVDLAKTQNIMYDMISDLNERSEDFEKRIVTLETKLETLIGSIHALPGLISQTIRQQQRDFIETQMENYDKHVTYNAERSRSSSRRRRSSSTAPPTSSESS
SMILES,pIC50 [1],EMR (Rattus norvegicus)
C1=C\c2ccc(cc2)C[n+]2ccc(c3ccccc32)NCCCCCCCCCCNc2cc[n+](c3ccccc23)Cc2ccc/1cc2,6.82,0.28
c1ccc2c(c1)c1cc[n+]2Cc2ccc(cc2)CCc2ccc(cc2)C[n+]2ccc(c3ccccc32)NCCCCCCCCCCN1,6.74,0.58
Nc1cc[n+](Cc2ccc(-c3ccc(C[n+]4ccc(N)c5ccccc54)cc3)cc2)c2ccccc12,6.42,0.4
Nc1cc[n+](Cc2ccc(CCc3ccc(C[n+]4ccc(N)c5ccccc54)cc3)cc2)c2ccccc12,6.39,0.71
c1ccc(C[n+]2ccc(NCCCCCCCCCCNc3cc[n+](Cc4ccccc4)c4ccccc34)c3ccccc32)cc1,6.15,1
Nc1cc[n+](Cc2ccc(Cc3ccc(C[n+]4ccc(N)c5ccccc54)cc3)cc2)c2ccccc12,6.35,0.39
Nc1cc[n+](Cc2cccc(-c3cccc(C[n+]4ccc(N)c5ccccc54)c3)c2)c2ccccc12,6.54,0.55
Nc1cc[n+](Cc2ccc3c(c2)Cc2cc(C[n+]4ccc(N)c5ccccc54)ccc2-3)c2ccccc12,6.51,0.33
Nc1cc[n+](Cc2ccc(/C=C\c3ccc(C[n+]4ccc(N)c5ccccc54)cc3)cc2)c2ccccc12,6.72,0.24

# More lines, main results first:
pIC50 [1],SMILES,EMR (Rattus norvegicus)
6.96,c1cc2cc(c1)-c1cccc(c1)C[n+]1ccc(c3ccccc31)NCCCCCCCCCCNc1cc[n+](c3ccccc13)C2,0.28
7.05,c1ccc2c(c1)c1cc[n+]2Cc2ccc3c(c2)Cc2cc(ccc2-3)C[n+]2ccc(c3ccccc32)NCCCCCCCCCCN1,0.12
6.77,c1ccc2c(c1)c1cc[n+]2Cc2ccc(cc2)-c2ccc(cc2)C[n+]2ccc(c3ccccc32)NCCCCCCCCCCN1,0.28
7.10,c1ccc2c(c1)c1cc[n+]2Cc2ccc(cc2)Cc2ccc(cc2)C[n+]2ccc(c3ccccc32)NCCCCCCCCCCN1 [UCL-1530],0.16
